# Where two headings read alike, the source gives them in different places.
# What was measured:
# [1] = Stability in liver microsomes, human; settings: for AUC: human
# [2] = Stability in liver microsomes, rat
# [3] = Stability in liver microsomes, dog
# [4] = Stability in cryopreserved hepatocytes, human; settings: for AUC: human
# [5] = Stability in cryopreserved hepatocytes, rat; settings: for AUC: rat
# [6] = Stability in cryopreserved hepatocytes, dog; settings: for AUC: dog
# [7] = rat
# [8] = dog
SMILES,Trep Concentration 0 min [1] [µM],Trep Concentration 10 min [1] [µM],Trep Concentration 20 min [1] [µM],Trep Concentration 30 min [1] [µM],Trep Concentration 60 min [1] [µM],AUC [1] [µmol·min/L],Trep Concentration 0 min [2] [µM],Trep Concentration 10 min [2] [µM],Trep Concentration 20 min [2] [µM],Trep Concentration 30 min [2] [µM],Trep Concentration 60 min [2] [µM],Trep Concentration 0 min [3] [µM],Trep Concentration 10 min [3] [µM],Trep Concentration 20 min [3] [µM],Trep Concentration 30 min [3] [µM],Trep Concentration 60 min [3] [µM],Trep Concentration (μM) 0 min [4] [µM],Trep Concentration (μM) 15 min [4] [µM],Trep Concentration (μM) 30 min [4] [µM],Trep Concentration (μM) 60 min [4] [µM],other results
CCCCCC(CCC1C(O)CC2Cc3c(cccc3OCC(=O)O)CC21)OC(=O)COc1ccccc1 (centres unmarked) [LXV],0.921,0.762,0.67,0.594,0.351,36.07,0.889,0.898,0.885,0.888,0.738,0.903,0.912,0.864,0.801,0.728,0.0193,0.559,0.515,0.452,Trep Concentration (μM) 120 min [4]: 0.39 µM; AUC [4]: 52.16 µmol·min/L; Trep Concentration (μM) 0 min [5]: 0.0517 µM; Trep Concentration (μM) 15 min [5]: 0.379 µM; Trep Concentration (μM) 30 min [5]: 0.289 µM; Trep Concentration (μM) 60 min [5]: 0.237 µM; Trep Concentration (μM) 120 min [5]: 0.2 µM; AUC [5]: 29.24 µmol·min/L; Trep Concentration (μM) 0 min [6]: 0.0135 µM; Trep Concentration (μM) 15 min [6]: 0.484 µM; Trep Concentration (μM) 30 min [6]: 0.465 µM; Trep Concentration (μM) 60 min [6]: 0.406 µM; Trep Concentration (μM) 120 min [6]: 0.373 µM; AUC [6]: 47.28 µmol·min/L; AUC [7]: 51.11 µmol·min/L; AUC [8]: 49.22 µmol·min/L
CCCCCC(CCC1C(O)CC2Cc3c(cccc3OCC(=O)O)CC21)OC(=O)NCCO (centres unmarked) [LIX],0,0,0,0,0,0.00,0,0,0,0,0,0,0,0,0,0,0,0,0,0,Trep Concentration (μM) 120 min [4]: 0 µM; AUC [4]: 0.00 µmol·min/L; Trep Concentration (μM) 0 min [5]: 0 µM; Trep Concentration (μM) 15 min [5]: 0 µM; Trep Concentration (μM) 30 min [5]: 0 µM; Trep Concentration (μM) 60 min [5]: 0 µM; Trep Concentration (μM) 120 min [5]: 0 µM; AUC [5]: 0.00 µmol·min/L; Trep Concentration (μM) 0 min [6]: 0 µM; Trep Concentration (μM) 15 min [6]: 0 µM; Trep Concentration (μM) 30 min [6]: 0.00416 µM; Trep Concentration (μM) 60 min [6]: 0.00836 µM; Trep Concentration (μM) 120 min [6]: 0.00907 µM; AUC [6]: 0.74 µmol·min/L; AUC [7]: 0.00 µmol·min/L; AUC [8]: 0.00 µmol·min/L
CCCCCC(CCC1C(O)CC2Cc3c(cccc3OCC(=O)O)CC21)OCCN1CCOCC1 (centres unmarked) [L],0.00327,0.00286,0.00309,0.00264,0.00244,0.17,0.00345,0.00356,0.00419,0.00488,0.00552,0.00302,0.00333,0.00398,0.00409,0.00389,0.00177,0.00195,0.00202,0.00194,Trep Concentration (μM) 120 min [4]: 0.00197 µM; AUC [4]: 0.23 µmol·min/L; Trep Concentration (μM) 0 min [5]: 0 µM; Trep Concentration (μM) 15 min [5]: 0.00347 µM; Trep Concentration (μM) 30 min [5]: 0.00366 µM; Trep Concentration (μM) 60 min [5]: 0.00352 µM; Trep Concentration (μM) 120 min [5]: 0.0034 µM; AUC [5]: 0.39 µmol·min/L; Trep Concentration (μM) 0 min [6]: 0.00247 µM; Trep Concentration (μM) 15 min [6]: 0.00312 µM; Trep Concentration (μM) 30 min [6]: 0.0106 µM; Trep Concentration (μM) 60 min [6]: 0.00355 µM; Trep Concentration (μM) 120 min [6]: 0.00568 µM; AUC [6]: 0.63 µmol·min/L; AUC [7]: 0.28 µmol·min/L; AUC [8]: 0.23 µmol·min/L
CCCCCC(CCC1C(O)CC2Cc3c(cccc3OCC(=O)O)CC21)Oc1ccccc1C(=O)O (centres unmarked) [LVI],0,0,0,0,0,0.00,0,0,0,0,0,0,0,0.003,0,0,0,0,0,0,Trep Concentration (μM) 120 min [4]: 0 µM; AUC [4]: 0.00 µmol·min/L; Trep Concentration (μM) 0 min [5]: 0 µM; Trep Concentration (μM) 15 min [5]: 0 µM; Trep Concentration (μM) 30 min [5]: 0 µM; Trep Concentration (μM) 60 min [5]: 0 µM; Trep Concentration (μM) 120 min [5]: 0 µM; AUC [5]: 0.00 µmol·min/L; Trep Concentration (μM) 0 min [6]: 0 µM; Trep Concentration (μM) 15 min [6]: 0.005 µM; Trep Concentration (μM) 30 min [6]: 0.005 µM; Trep Concentration (μM) 60 min [6]: 0.003 µM; Trep Concentration (μM) 120 min [6]: 0 µM; AUC [6]: 0.00 µmol·min/L; AUC [7]: 0.00 µmol·min/L; AUC [8]: 0.00 µmol·min/L

# Continued, in another order:
Trep Concentration 0 min [1] [µM],Trep Concentration 10 min [1] [µM],Trep Concentration 20 min [1] [µM],Trep Concentration 30 min [1] [µM],Trep Concentration 60 min [1] [µM],AUC [1] [µmol·min/L],Trep Concentration 0 min [2] [µM],Trep Concentration 10 min [2] [µM],Trep Concentration 20 min [2] [µM],Trep Concentration 30 min [2] [µM],Trep Concentration 60 min [2] [µM],Trep Concentration 0 min [3] [µM],Trep Concentration 10 min [3] [µM],Trep Concentration 20 min [3] [µM],Trep Concentration 30 min [3] [µM],Trep Concentration 60 min [3] [µM],Trep Concentration (μM) 0 min [4] [µM],Trep Concentration (μM) 15 min [4] [µM],Trep Concentration (μM) 30 min [4] [µM],Trep Concentration (μM) 60 min [4] [µM],SMILES,other results
0.0209,0.0312,0.0361,0.0389,0.0332,2.05,0,0,0.00316,0.00337,0.00402,0.00725,0.0115,0.0157,0.0196,0.0259,0,0.0213,0.0378,0.0556,CCCCCC(CCC1C(O)CC2Cc3c(cccc3OCC(=O)O)CC21)OC(=O)c1ccccc1O (centres unmarked) [LXI],Trep Concentration (μM) 120 min [4]: 0.0701 µM; AUC [4]: 5.78 µmol·min/L; Trep Concentration (μM) 0 min [5]: 0 µM; Trep Concentration (μM) 15 min [5]: 0 µM; Trep Concentration (μM) 30 min [5]: 0.00373 µM; Trep Concentration (μM) 60 min [5]: 0.00634 µM; Trep Concentration (μM) 120 min [5]: 0.00941 µM; AUC [5]: 0.65 µmol·min/L; Trep Concentration (μM) 0 min [6]: 0 µM; Trep Concentration (μM) 15 min [6]: 0 µM; Trep Concentration (μM) 30 min [6]: 0.00299 µM; Trep Concentration (μM) 60 min [6]: 0.00396 µM; Trep Concentration (μM) 120 min [6]: 0.00663 µM; AUC [6]: 0.44 µmol·min/L; AUC [7]: 0.16 µmol·min/L; AUC [8]: 1.09 µmol·min/L
0.105,0.14,0.137,0.126,0.0865,7.11,0.0226,0.033,0.0396,0.0481,0.0609,0.0189,0.0283,0.0363,0.044,0.059,0,0.0671,0.102,0.123,CCCCCC(CCC1C(O)CC2Cc3c(cccc3OCC(=O)O)CC21)OC(=O)c1cccc(O)c1 (centres unmarked) [LX],Trep Concentration (μM) 120 min [4]: 0.137 µM; AUC [4]: 12.95 µmol·min/L; Trep Concentration (μM) 0 min [5]: 0 µM; Trep Concentration (μM) 15 min [5]: 0.021 µM; Trep Concentration (μM) 30 min [5]: 0.0343 µM; Trep Concentration (μM) 60 min [5]: 0.0477 µM; Trep Concentration (μM) 120 min [5]: 0.0634 µM; AUC [5]: 5.14 µmol·min/L; Trep Concentration (μM) 0 min [6]: 0 µM; Trep Concentration (μM) 15 min [6]: 0.00428 µM; Trep Concentration (μM) 30 min [6]: 0.00492 µM; Trep Concentration (μM) 60 min [6]: 0.00784 µM; AUC [6]: 0.88 µmol·min/L; AUC [7]: 2.72 µmol·min/L; AUC [8]: 2.51 µmol·min/L
